Values of other authors as cited in patent publication US20050147663A1, “Method of treatment for improved bioavailability” (priority 2003, published 2005).

How the values were obtained:
[1] = enhanced by food in some instances, reduced in others
[2] = standard breakfast; capsules
[3] = delayed release formulations, drug given 30 minutes after food

SMILES | bioavailability affected by the presence of food [1] | also measured
CC(C)CN(C[C@@H](O)[C@H](Cc1ccccc1)NC(=O)O[C@H]1CCOC1)S(=O)(=O)c1ccc(N)cc1 [amprenavir] | affected | 
C[C@H]1c2cccc(O)c2C(=O)C2=C(O)[C@]3(O)C(=O)C(C(N)=O)=C(O)[C@@H](N(C)C)[C@@H]3[C@@H](O)[C@@H]21 [doxycycline] |  | bioavailability as judged by AUC and Cmax [2]: reduced
O=C1Nc2ccc(Cl)cc2[C@@](C#CC2CC2)(C(F)(F)F)O1 [efavirenz] | affected | 
COc1ccc2[n-]c([S+]([O-])Cc3ncc(C)c(OC)c3C)nc2c1.COc1ccc2[n-]c([S+]([O-])Cc3ncc(C)c(OC)c3C)nc2c1.[Mg+2] (centres unmarked) [esomeprazole magnesium] |  | decrease of the drug AUC (delayed release capsules, administration after food intake): 43-53%
CC(C)(C)NC(=O)[C@@H]1CN(Cc2cccnc2)CCN1C[C@@H](O)C[C@@H](Cc1ccccc1)C(=O)N[C@H]1c2ccccc2C[C@H]1O [indinavir] | affected | 
Nc1ccn([C@@H]2CS[C@H](CO)O2)c(=O)n1 [lamivudine] | affected | 
Cc1c(OCC(F)(F)F)ccnc1C[S+]([O-])c1nc2ccccc2[nH]1 (centres unmarked) [lansoprazole] |  | AUC diminished [3]: 50-70%; Cmax diminished [3]: 50-70%
COc1ccc2[nH]c([S+]([O-])Cc3ncc(C)c(OC)c3C)nc2c1 (centres unmarked) [omeprazole] |  | reduction in Cmax (20 mg delayed release capsule, administered with applesauce): 25%; food effect (40 mg delayed release capsule, with applesauce): does not show a food effect
COc1ccnc(C[S+]([O-])c2nc3ccc(OC(F)F)cc3[nH]2)c1OC (centres unmarked) [pantoprazole sodium] |  | Tmax variability (delayed release product): highly variable; Tmax change when given with food (delayed release product, given with food): can increase significantly

Further lines, with some results ahead:

bioavailability affected by the presence of food [1] | SMILES | also measured
affected | Cc1c(O)cccc1C(=O)N[C@@H](CSc1ccccc1)[C@H](O)CN1C[C@H]2CCCC[C@H]2C[C@H]1C(=O)NC(C)(C)C [nelfinavir] | 
affected | CC(C)c1nc(CN(C)C(=O)N[C@H](C(=O)N[C@@H](Cc2ccccc2)C[C@H](O)[C@H](Cc2ccccc2)NC(=O)OCc2cncs2)C(C)C)cs1 [ritonavir] | 
affected | CC(C)(C)NC(=O)[C@@H]1C[C@@H]2CCCC[C@@H]2CN1C[C@@H](O)[C@H](Cc1ccccc1)NC(=O)[C@H](CC(N)=O)NC(=O)c1ccc2ccccc2n1 [saquinavir] | 
affected | Nc1ccn([C@H]2CC[C@@H](CO)O2)c(=O)n1 [zalcitabine] | 
affected | Cc1cn([C@H]2C[C@H](N=[N+]=[N-])[C@@H](CO)O2)c(=O)[nH]c1=O [zidovudine] | 
